Assay [1] concerns the target T1, rat native α4β2 receptors (Rattus norvegicus, UniProt P09483+P12390).
T1 construct: rat native α4β2 receptors; from tissue; host or cells: rat (female Sprague-Dawley) cerebral cortex membranes
The assay is described as follows: Radioligand binding, rat cortex membranes (α4β2). The settings on record: read-out: Ki, inhibition of [3H]epibatidine binding to rat native α4β2 receptors. On the procedure:
Preparation of Membranes from Rat Cortex: Rats (Female, Sprague-Dawley), weighing 150-250 g, were maintained on a 12 h light/dark cycle and were allowed free access to water and food supplied by PMI Nutrition International, Inc. Animals were anesthetized with 70% CO2, and then decapitated. Brains were removed and placed on an ice-cold platform. The cerebral cortex was removed and placed in 20 volumes (weight:volume) of ice-cold preparative buffer (137 mM NaCl, 10.7 mM KCl, 5.8 mM KH2PO4, 8 mM Na2HPO4, 20 mM HEPES (free acid), 5 mM iodoacetamide, 1.6 mM EDTA, pH 7.4); PMSF, dissolved in methanol to a final concentration of 100 μM, was added and the suspension was homogenized by Polytron. […]
On the day of the assay, the frozen membranes were thawed and spun at 48,000×g for 20 min. […] Protein concentrations were determined using a Pierce BCA Protein Assay Kit, with bovine serum albumin as the standard (Pierce Chemical Company, Rockford, Ill.).
[…] Filters were then counted to determine radioactivity bound to the membranes by liquid scintillation counting (2200CA Tri-Carb LSC, Packard Instruments, 50% efficiency or Wallac Trilux 1450 MicroBeta, 40% efficiency, Perkin Elmer).
Data were expressed as disintegrations per minute (DPMs). […] Ki values were calculated using the Cheng-Prussof equation (1973): […]

The next assay has as its system Sprague-Dawley rats. Put plainly: Complete Freund's adjuvant (CFA)-induced thermal hyperalgesia. Conditions: 0.1, 1 or 10 mg/kg s.c., 1 hour post-dose, vs vehicle. Type of assay: in vivo, rat. How it is done:
Injection of complete Freund's adjuvant (CFA) in rats is commonly used to evaluate compounds with potential for use as drugs in treatment of mono-arthritis (osteo-arthritis) and other inflammatory conditions. Signs of hyperalgesia develop within 24 h (Schaible and Grubb, 1993).
(2S,3R)—N-2-((3-pyridinyl)methyl)-1-azabicyclo[2.2.2]oct-3-yl)-3,5-difluorobenzamide was evaluated for possible analgesia effect in the CFA-induced thermal hyperalgesia test in rats using methods similar to those described by Walker and colleagues (2003). Briefly, adult male Sprague-Dawley rats (BioLasco, Taiwan) weighing 180±20 g on receipt were randomly assigned to treatment groups of n=8 per group. Animals each received a sub plantar injection (0.1 mL) of CFA (DIFCO, 264010; 0.1% solution) to the right hind paw at 24 h prior to experimental testing. Thermal hyperalgesia was tested using a Paw/Tail stimulator analgesia meter (IITC Model-336G, IITC, USA) with a thermally regulated glass floor set at 30° C. […] The time required for the animal to withdraw the paw from the thermal stimulus was automatically recorded. […]
Twenty-four hours after CFA injection, subjects were pre-selected (for clear presence of thermal hyperalgesia) for experimentation only if the latency to withdrawal was less than 75% of the baseline. […] The post-treatment level of thermal hyperalgesia was then measured at 60 minutes post-treatment. […]

T1 sequence (P09483 31-630): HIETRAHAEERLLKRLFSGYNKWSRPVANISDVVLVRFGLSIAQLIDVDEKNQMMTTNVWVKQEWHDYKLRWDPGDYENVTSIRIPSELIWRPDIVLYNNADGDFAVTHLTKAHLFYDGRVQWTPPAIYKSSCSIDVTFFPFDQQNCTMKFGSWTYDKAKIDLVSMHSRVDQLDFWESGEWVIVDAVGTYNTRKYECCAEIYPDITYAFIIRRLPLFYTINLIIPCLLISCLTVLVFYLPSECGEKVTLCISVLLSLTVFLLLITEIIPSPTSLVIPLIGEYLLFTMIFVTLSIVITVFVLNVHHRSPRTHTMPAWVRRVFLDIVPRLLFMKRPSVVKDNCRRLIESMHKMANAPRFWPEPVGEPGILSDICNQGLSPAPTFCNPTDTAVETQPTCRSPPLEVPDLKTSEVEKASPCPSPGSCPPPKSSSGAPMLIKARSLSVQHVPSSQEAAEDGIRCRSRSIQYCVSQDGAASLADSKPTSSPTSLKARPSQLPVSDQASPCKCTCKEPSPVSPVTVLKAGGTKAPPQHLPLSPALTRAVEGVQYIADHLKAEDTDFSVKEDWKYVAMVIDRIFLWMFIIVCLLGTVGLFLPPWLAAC
T1 sequence (P12390 25-500): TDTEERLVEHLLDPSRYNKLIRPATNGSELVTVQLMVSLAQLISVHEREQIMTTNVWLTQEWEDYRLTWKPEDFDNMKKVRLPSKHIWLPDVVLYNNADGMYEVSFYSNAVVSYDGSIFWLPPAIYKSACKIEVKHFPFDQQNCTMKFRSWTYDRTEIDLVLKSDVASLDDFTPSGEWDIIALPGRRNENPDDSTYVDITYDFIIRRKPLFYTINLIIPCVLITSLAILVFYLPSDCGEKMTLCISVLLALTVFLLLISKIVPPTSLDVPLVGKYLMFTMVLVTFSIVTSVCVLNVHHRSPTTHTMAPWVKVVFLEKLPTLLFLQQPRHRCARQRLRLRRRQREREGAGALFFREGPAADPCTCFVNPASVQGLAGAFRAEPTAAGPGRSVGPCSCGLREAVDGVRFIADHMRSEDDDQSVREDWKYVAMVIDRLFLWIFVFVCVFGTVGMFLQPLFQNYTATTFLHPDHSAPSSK

With `O=C(N[C@@H]1C2CCN(CC2)[C@H]1Cc1cccnc1)c1cc(F)cc(F)c1` [Compound A], in assay [1], the Ki stood at 4.12 µM. Besides, the “analgesic effect on CFA-induced thermal hyperalgesia” value with Sprague-Dawley rats is given as “not associated with any significant analgesic effect”.

The term Ki denotes a dissociation constant, usually derived from enzyme kinetics or from competition with a known ligand.

The record behind these values is patent US20110312961A1, “2,5-Disubstituted Morpholine Orexin REceptor Antagonists” (priority 2008, published 2011).
